pIC50: −log10 of the molar value.

Data on 9 compounds can be found in patent US8138340B2, “Bicyclononene derivatives” (Actelion Pharmaceuticals Ltd., priority 2004, dated 2012).

In the experiment the target is T1, recombinant human renin (Homo sapiens, UniProt P00797).
T1 sequence (P00797 67-406): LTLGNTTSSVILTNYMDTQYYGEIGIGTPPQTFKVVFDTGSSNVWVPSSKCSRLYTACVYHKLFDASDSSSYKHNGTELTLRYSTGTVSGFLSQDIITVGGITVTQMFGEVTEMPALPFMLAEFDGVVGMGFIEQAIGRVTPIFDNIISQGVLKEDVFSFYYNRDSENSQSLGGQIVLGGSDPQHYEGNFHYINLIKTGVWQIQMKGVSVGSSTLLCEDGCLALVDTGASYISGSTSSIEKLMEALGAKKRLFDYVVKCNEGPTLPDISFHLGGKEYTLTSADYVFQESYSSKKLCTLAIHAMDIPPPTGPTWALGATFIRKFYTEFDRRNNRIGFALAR
Kind of experiment: Primary renin inhibition assay: IC50 in buffer, 384 well MTP (AngI quantified by EIA). The format is biochemical. Particulars: human tetradecapeptide substrate, assay buffer pH 7.4, 37° C. for 3 h. On the procedure:
1. Enzyme Immuno Assay (EIA) to Estimate AngI Accumulation and Renin Inhibition
1.1 Preparation of AngI-BSA Conjugate
1.3 mg (1 μmol) of AngI [1-10 (Bachem, H-1680)] and 17 mg (0.26 μmol) of BSA (Fluka, 05475) were dissolved in 4 mL of 0.1M phosphate buffer, pH 7.4, after which 2 mL of a 1:100 dilution of glutaraldehyde in H2O (Sigma G-5882) was added dropwise. The mixture was incubated overnight at 4° C., then dialyzed against 2 liters of 0.9% NaCl, twice for 4 h at rt, followed by dialysis against 2 liters of PBS 1× overnight at rt. The solution was then filtered with a Syringe filter, 0.45 μm (Nalgene, Cat. No. 194-2545). The conjugate can be stored in polypropylene tubes in 0.05% sodium azide at 4° C. for at least 12 months.
1.2 Preparation of BSA-AngI Coated MTP
Microtiter plates (MPT384, MaxiSorp™, Nunc) were incubated overnight at 4° C. with 80 μl of AngI (1-10)/BSA conjugate, diluted 1:100'000 in PBS 1× in a teflon beaker (exact dilution dependent on batch of conjugate), emptied, filled with 90 μl of blocking solution [0.5% BSA (Sigma A-2153) in PBS 1×, 0.02% NaN3], and incubated for at least 2 h at rt, or overnight at 4° C. 96 well MTP (MaxiSorp™, Nunc) were coated with […] conjugate and blocked with 250 μl blocking solution as above, except that the blocking solution contained 3% BSA. The plates can be stored in blocking solution at 4° C. for 1 month.
1.3 AngI-EIA in 384 well MTP
The AngI (1-10)/BSA coated MTP were washed 3 times with wash buffer (PBS 1×, 0.01% Tween 20) and filled with 75 μl of primary antibody solution (anti-AngI antiserum, pre-diluted 1:10 in horse serum), diluted to a final concentration of 1:100'000 in assay buffer (PBS 1×, 1 mM EDTA, 0.1% BSA, pH 7.4). 5 μl of the renin reaction (or standards in assay buffer) (see below) were added to the primary antibody solution and the plates were incubated overnight at 4° C. After the incubation the plates were washed 3 times with wash buffer and incubated with secondary antibody [anti-rabbit IgG, linked to horseradish peroxidase (Amersham Bioscience, NA 934V), diluted 1:2'000 in wash buffer] for 2 h at rt. The plates were washed 3 times with wash buffer and then incubated for 1 h at rt with substrate solution [1.89 mM ABTS (2.2′-azino-di-(3-ethyl-benzthiazolinsulfonate)] (Roche Diagnostics, 102 946) and 2.36 mM H2O2 [30%, (Fluka, 95300] in substrate buffer (0.1M sodium acetate, 0.05M sodium dihydrogen phosphate, pH 4.2). The OD of the plate was read at 405 nm in a microplate reader (FLUOStar Optima from BMG). The production of AngI during the renin reaction was quantified by comparing the OD of the sample with the OD of a standard curve of AngI(1-10), measured in parallel.
2. Primary Renin Inhibition Assay: IC50 in Buffer, 384 well MTP
The renin assay was adapted from an assay described before (Fischli W. et al., Hypertension, 1991, 18:22-31) and consists of two steps: in the first step, recombinant human renin is incubated with its substrate (commercial human tetradecapeptide renin substrate) to create the product Angiotensin I (AngI). In the second step, the accumulated AngI is measured by an immunological assay (enzyme immuno assay, EIA). The detailed description of this assay is found below. The EIA is very sensitive and well suited for renin activity measurements in buffer or in plasma. Due to the low concentration of renin used in this assay (2 fmol per assay tube or 10 pM) it is possible to measure inhibitor affinities in this primary assay down to low pM concentration.
Recombinant human renin (3 pg/μl) in assay buffer (PBS 1×, 1 mM EDTA, 0.1% BSA, pH 7.4), human tetradecapeptide (1-14) substrate (Bachem, M-1120) [5 μM in 10 mM HCl], hydroxyquinoline sulfate (Fluka, 55100) [30 mM in H2O] and assay buffer were premixed at 4° C. at a ratio of 100:30:10:145. 47.5 μl per well of this premix was transferred into polypropylene plates (MTP384, Nunc). […]

On to `O=C(C1=C(c2nc(CCCOc3cc(C(F)(F)F)ccc3Cl)cs2)C[C@@H]2CNC[C@H]1N2)N(Cc1cccc(Cl)c1Cl)C1CC1` (racemic) [Example 2, (rac.)-(1R*, 5S*)-7-{4-[3-(2-Chloro-5-trifluoromethylphenoxy)propyl]thiazol-2-yl}-3,9-diazabicyclo[3.3.1]non-6-ene-6-carboxylic acid cyclopropyl-(2,3-dichlorobenzyl)amide], for which the negative-log IC50 (pIC50) (usually the IC50 on a negative log10 scale, so that one unit is a factor of ten) is 7.03.
As for `Cc1ccc(F)c(OCCOc2ncc(C3=C(C(=O)N(Cc4cccc(Cl)c4Cl)C4CC4)[C@H]4CNC[C@@H](C3)N4)s2)c1Cl` (racemic) [Example 7, (rac.)-(1R*, 5S*)-7-{2-[2-(2-Chloro-6-fluoro-3-methylphenoxy)ethoxy]thiazol-5-yl}-3,9-diazabicyclo[3.3.1]non-6-ene-6-carboxylic acid cyclopropyl-(2,3-dichlorobenzyl)-amide], the pIC50 is 8.54.
As for `Cc1ccc(F)c(OCCCc2coc(C3=C(C(=O)N(Cc4cccc(Cl)c4Cl)C4CC4)[C@H]4CNC[C@@H](C3)N4)n2)c1Cl` (racemic) [Example 12, (rac.)-(1R*, 5S*)-7-{4-[3-(2-Chloro-6-fluoro-3-methylphenoxy)propyl]oxazol-2-yl}-3,9-diazabicyclo[3.3.1]non-6-ene-6-carboxylic acid cyclopropyl-(2,3-dichlorobenzyl)-amide], the figure is 7.34; as for `COc1cccc(CN(C(=O)C2=C(c3cnc(CCCOc4c(Cl)cc(C)cc4Cl)s3)C[C@@H]3CNC[C@H]2N3)C2CC2)c1C` (racemic) [Example 21, (rac.)-(1R*, 5S*)-7-{2-[3-(2,6-Dichloro-4-methylphenoxy)propyl]thiazol-5-yl}-3,9-diazabicyclo[3.3.1]non-6-ene-6-carboxylic acid cyclopropyl-(3-methoxy-2-methylbenzyl)amide], 8.36.
On to `COc1cccc(CN(C(=O)C2=C(c3cnc(OCCOc4c(Cl)cc(C)cc4Cl)s3)C[C@@H]3CNC[C@H]2N3)C2CC2)c1C` (racemic) [Example 35, (rac.)-(1R*, 5S*)-7-{2-[2-(2,6-Dichloro-4-methylphenoxy)ethoxy]thiazol-5-yl}-3,9-diazabicyclo[3.3.1]non-6-ene-6-carboxylic acid cyclopropyl-(3-methoxy-2-methylbenzyl)amide], for which the pIC50 is 8.89.
With `Cc1cc(Cl)c(OCCOc2ncc(C3=C(C(=O)N(Cc4cccc(F)c4F)C4CC4)[C@H]4CNC[C@@H](C3)N4)s2)c(Cl)c1` (racemic) [Example 45, (rac.)-(1R*, 5S*)-7-{2-[2-(2,6-Dichloro-4-methylphenoxy)ethoxy]thiazol-5-yl}-3,9-diazabicyclo[3.3.1]non-6-ene-6-carboxylic acid cyclopropyl-(2,3-difluorobenzyl)amide] the figure was 7.82; with `Cc1cc(Cl)c(OCCOc2ncc(C3=C(C(=O)N(Cc4cccc(Cl)c4C)C4CC4)[C@H]4CNC[C@@H](C3)N4)s2)c(Cl)c1` (racemic) [Example 52, (rac.)-(1R*, 5S*)-7-{2-[2-(2,6-Dichloro-4-methylphenoxy)ethoxy]thiazol-5-yl}-3,9-diazabicyclo[3.3.1]non-6-ene-6-carboxylic acid (3-chloro-2-methylbenzyl)cyclopropyl-amide], 8.96.
For the compound “(rac.)-(1R*, 5S*)-7-{4-[3-(3-Chloro-2,6-difluorophenoxy)propyl]thiazol-2-yl}-3,9-diazabicyclo[3.3.1]non-6-ene-6-carboxylic acid cyclopropyl-(2,3-dichloro-benzyl)amide [Example 3]”, the negative logarithm of the IC50 (pIC50) was 7.80.
With “(rac.)-(1R*, 5S*)-7-{5-[2-(4-Chloro-3,5-dimethylphenoxy)ethyl]-4-methylthiazol-2-yl}-3,9-diazabicyclo[3.3.1]non-6-ene-6-carboxylic acid cyclopropyl-(3-methoxy-2-methylbenzyl)amide [Example 1]” the figure was 7.24.
